In paper PMC9356726 (Molecular Biology and Evolution, 2022) one finds Km data, which are given here for 1 compound.

The subject of this test is AlmA. It counts as biochemical, Streptomyces sp. A012304. The note with it: succinyl-CoA regenerated, 20 mM HEPES-NaOH pH 7.5, 20 μM PLP, 3 mM MgCl2, 37°C, 0.01 μM enzyme.

By Km is commonly meant the substrate concentration at which the rate is half of its maximum. Consider `N[C@@H](CO)C(=O)O` [serine], for which the Km worked out at 6.8 ± 1.4 mM.
